# What was measured:
# Assay in all cases: ProQinase kinase panel, % inhibition at fixed concentration
# Format in all cases: biochemical
# AKT1 = AKT1 (Homo sapiens, UniProt P31749); conditions: inhibitor at 10 µM; average of two data points; read-out: AKT1 percentage of inhibition
# Description: (§1) Once compounds 7 and 8 were synthesized, a pairwise comparison was performed to strictly evaluate the real impact of this fragment-hopping where imidazopyridazine is replaced by triazolopyridine.
# RPS6KA1 = RPS6KA1 (Homo sapiens, UniProt Q15418)
# Chain of RPS6KA1 (Q15418 whole entry, species assumed): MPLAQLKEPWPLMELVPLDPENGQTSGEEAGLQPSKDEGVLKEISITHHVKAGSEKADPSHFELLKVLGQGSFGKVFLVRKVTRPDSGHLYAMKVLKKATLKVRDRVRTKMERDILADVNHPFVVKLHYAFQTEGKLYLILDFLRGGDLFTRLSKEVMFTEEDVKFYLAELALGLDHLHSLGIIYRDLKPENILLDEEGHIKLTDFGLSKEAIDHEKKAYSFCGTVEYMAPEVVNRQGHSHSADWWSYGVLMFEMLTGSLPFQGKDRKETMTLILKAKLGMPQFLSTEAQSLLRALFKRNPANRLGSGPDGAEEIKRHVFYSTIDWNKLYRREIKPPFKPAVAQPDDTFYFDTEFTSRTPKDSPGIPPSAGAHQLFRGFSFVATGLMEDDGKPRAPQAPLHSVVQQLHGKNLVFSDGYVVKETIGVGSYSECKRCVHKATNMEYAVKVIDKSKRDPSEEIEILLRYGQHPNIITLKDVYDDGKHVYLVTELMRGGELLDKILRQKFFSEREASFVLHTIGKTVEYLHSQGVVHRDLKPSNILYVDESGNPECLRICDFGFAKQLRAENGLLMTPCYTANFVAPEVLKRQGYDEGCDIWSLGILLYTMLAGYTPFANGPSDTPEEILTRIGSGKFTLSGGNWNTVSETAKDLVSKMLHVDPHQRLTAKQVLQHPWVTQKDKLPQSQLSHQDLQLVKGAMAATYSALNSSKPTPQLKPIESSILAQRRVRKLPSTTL
# Description: as §1
# IGF1-R = IGF1-R (Homo sapiens, UniProt P08069); conditions: inhibitor at 10 µM; average of two data points; read-out: IGF1-R percentage of inhibition
# Description: as §1
# MST1 = biological target: T1, MST1 (Homo sapiens, UniProt Q13043)
# T1 sequence (Q13043 1-487): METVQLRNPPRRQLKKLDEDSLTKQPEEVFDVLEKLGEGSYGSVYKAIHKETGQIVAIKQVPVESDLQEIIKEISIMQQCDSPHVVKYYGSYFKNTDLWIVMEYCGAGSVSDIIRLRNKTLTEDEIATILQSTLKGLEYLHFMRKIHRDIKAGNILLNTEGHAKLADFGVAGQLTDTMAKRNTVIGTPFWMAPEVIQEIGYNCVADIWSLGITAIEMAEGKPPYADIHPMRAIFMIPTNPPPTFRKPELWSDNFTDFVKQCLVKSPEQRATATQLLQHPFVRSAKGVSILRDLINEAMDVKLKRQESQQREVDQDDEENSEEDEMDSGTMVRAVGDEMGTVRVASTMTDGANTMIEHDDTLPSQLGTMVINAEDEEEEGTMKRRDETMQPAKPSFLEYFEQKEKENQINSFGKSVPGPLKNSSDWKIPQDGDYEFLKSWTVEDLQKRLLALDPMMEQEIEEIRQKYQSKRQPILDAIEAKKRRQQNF
# Description: as §1
# JAK2 = JAK2 (Homo sapiens, UniProt O60674); conditions: inhibitor at 10 µM; average of two data points; read-out: JAK2 percentage of inhibition
# Description: as §1
# PAK1 = PAK1 (Homo sapiens, UniProt Q13153); conditions: inhibitor at 10 µM; average of two data points; read-out: PAK1 percentage of inhibition
# Description: as §1
# FGF-R1 = FGF-R1 (Homo sapiens, UniProt P11362)
# Chain of FGF-R1 (P11362 22-822, species assumed): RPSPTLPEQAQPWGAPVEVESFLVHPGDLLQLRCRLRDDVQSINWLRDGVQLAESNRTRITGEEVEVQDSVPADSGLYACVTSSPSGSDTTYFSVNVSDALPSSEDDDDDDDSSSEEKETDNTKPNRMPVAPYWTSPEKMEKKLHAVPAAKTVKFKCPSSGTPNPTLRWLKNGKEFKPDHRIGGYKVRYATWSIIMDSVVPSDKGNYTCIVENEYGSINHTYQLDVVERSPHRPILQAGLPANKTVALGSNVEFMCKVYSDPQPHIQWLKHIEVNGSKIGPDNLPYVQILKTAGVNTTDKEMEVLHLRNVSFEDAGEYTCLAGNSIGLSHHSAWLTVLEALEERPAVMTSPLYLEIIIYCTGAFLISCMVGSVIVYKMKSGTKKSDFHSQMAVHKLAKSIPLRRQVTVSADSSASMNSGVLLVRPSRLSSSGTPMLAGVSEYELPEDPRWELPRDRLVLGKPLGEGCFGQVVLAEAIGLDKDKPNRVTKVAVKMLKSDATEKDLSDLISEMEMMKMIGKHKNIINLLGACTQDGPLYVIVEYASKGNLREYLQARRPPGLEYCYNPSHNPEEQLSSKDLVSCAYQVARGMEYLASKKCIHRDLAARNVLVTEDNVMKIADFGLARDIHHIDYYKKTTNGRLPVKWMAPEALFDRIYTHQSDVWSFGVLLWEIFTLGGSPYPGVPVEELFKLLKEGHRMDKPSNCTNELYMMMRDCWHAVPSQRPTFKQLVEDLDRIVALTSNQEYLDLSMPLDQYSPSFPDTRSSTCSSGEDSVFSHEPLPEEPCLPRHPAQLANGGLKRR
# Description: as §1
# SGK1 = biological target: T2, SGK1 (Homo sapiens, UniProt O00141)
# T2 sequence (O00141 1-431): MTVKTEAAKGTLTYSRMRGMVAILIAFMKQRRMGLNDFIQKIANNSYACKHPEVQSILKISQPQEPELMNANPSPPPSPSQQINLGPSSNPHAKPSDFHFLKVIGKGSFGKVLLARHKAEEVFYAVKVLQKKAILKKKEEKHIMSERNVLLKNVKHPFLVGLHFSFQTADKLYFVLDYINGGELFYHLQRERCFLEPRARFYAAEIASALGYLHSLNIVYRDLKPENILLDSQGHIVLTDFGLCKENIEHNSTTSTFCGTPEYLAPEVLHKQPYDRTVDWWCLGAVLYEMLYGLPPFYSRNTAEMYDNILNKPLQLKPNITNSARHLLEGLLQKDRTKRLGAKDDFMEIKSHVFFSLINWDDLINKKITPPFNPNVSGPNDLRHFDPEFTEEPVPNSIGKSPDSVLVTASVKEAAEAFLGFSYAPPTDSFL
# Description: as §1
# B-RAF-V600E = B-RAF-V600E (Homo sapiens, UniProt P15056, V600E)
# Chain of B-RAF-V600E (P15056 whole entry V600E): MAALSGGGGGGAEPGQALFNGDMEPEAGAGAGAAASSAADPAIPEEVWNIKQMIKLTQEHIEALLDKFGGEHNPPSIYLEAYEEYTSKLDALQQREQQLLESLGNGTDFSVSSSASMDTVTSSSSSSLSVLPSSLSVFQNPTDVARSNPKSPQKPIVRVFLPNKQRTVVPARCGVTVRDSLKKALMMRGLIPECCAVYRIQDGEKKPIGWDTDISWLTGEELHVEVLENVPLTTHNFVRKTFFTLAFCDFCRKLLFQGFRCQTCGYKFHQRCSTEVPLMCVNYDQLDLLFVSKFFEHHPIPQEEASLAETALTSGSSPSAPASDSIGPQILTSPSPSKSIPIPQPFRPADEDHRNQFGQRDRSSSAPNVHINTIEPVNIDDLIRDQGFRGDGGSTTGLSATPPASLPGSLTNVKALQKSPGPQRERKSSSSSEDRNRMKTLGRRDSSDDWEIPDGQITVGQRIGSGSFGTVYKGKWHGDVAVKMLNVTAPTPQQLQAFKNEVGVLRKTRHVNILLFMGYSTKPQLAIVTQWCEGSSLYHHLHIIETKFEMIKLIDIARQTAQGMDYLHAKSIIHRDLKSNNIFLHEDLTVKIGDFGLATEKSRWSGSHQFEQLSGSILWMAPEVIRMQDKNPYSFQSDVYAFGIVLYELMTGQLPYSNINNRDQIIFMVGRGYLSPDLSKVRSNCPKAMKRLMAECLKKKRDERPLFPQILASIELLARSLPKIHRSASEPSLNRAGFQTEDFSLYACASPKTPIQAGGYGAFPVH
# Description: as §1
# DYRK1A = DYRK1A (Homo sapiens, UniProt Q13627)
# Description: as §1
# CK1-α1 = CK1-α1 (Homo sapiens, UniProt P48729)
# Chain of CK1-α1 (P48729 whole entry): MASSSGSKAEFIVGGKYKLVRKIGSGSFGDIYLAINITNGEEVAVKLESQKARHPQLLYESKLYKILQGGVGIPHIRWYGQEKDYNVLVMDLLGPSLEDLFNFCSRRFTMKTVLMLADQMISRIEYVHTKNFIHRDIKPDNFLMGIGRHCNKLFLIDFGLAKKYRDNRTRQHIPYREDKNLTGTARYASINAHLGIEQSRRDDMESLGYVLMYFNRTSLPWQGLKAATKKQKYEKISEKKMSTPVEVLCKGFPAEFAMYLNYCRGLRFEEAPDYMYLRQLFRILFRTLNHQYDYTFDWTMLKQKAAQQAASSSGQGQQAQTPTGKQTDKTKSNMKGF
# Description: as §1
# EGF-R = EGF-R (Homo sapiens, UniProt P00533)
# Chain of EGF-R (P00533 25-1210, species assumed): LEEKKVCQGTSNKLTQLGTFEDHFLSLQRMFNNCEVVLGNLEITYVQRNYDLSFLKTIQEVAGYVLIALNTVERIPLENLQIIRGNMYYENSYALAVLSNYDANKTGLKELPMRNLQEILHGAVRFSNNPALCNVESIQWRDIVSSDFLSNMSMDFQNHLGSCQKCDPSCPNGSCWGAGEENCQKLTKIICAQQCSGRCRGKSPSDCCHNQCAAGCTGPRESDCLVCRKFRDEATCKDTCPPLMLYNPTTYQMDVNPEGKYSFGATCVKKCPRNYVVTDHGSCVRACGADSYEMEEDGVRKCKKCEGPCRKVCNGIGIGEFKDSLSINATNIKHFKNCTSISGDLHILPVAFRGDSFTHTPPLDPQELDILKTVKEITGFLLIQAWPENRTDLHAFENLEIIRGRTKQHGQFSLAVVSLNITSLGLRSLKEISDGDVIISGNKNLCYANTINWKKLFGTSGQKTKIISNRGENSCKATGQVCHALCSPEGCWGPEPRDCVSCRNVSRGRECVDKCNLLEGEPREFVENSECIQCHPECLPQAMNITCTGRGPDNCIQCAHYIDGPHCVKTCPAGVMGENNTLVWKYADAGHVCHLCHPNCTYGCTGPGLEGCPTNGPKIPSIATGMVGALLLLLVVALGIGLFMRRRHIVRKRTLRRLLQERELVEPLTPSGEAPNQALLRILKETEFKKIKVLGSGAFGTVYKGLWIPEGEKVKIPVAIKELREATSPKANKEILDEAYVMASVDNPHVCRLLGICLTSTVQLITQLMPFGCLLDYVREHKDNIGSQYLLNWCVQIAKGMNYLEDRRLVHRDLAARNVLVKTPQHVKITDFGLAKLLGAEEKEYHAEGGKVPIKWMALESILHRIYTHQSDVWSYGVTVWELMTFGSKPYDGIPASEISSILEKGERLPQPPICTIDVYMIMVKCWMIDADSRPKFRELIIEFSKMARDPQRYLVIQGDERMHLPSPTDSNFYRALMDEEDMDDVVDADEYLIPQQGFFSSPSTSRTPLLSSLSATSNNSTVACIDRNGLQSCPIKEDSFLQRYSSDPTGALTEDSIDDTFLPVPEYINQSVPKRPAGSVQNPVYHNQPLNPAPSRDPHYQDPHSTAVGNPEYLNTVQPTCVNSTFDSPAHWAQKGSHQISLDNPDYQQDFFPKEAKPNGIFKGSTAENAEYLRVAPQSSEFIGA
# Description: as §1
# MET = MET (Homo sapiens, UniProt P08581); conditions: inhibitor at 10 µM; average of two data points; read-out: MET percentage of inhibition
# Description: as §1
# ARK5 = biological target: T3, ARK5 (Homo sapiens, UniProt O60285)
# T3 sequence (O60285 1-661): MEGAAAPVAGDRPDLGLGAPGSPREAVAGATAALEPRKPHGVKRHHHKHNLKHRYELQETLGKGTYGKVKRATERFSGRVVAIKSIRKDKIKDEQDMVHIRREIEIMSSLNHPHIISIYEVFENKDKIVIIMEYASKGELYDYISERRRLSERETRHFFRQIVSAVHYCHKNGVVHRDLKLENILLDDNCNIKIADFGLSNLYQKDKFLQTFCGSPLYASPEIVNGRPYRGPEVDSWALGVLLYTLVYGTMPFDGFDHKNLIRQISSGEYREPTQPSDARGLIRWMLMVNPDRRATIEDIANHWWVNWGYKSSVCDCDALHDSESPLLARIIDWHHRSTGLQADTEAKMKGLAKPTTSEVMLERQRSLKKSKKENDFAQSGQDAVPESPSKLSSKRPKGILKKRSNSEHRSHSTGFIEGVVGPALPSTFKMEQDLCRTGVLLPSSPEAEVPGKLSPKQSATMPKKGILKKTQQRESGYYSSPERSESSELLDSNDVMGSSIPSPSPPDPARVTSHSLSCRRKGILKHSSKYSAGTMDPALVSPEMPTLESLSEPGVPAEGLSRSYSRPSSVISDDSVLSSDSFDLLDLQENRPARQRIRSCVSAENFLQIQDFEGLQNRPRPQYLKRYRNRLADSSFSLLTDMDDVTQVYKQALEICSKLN
# Description: as §1
# PDGFR-α = PDGFR-α (Homo sapiens, UniProt P16234)
# Chain of PDGFR-α (P16234 24-1089, species assumed): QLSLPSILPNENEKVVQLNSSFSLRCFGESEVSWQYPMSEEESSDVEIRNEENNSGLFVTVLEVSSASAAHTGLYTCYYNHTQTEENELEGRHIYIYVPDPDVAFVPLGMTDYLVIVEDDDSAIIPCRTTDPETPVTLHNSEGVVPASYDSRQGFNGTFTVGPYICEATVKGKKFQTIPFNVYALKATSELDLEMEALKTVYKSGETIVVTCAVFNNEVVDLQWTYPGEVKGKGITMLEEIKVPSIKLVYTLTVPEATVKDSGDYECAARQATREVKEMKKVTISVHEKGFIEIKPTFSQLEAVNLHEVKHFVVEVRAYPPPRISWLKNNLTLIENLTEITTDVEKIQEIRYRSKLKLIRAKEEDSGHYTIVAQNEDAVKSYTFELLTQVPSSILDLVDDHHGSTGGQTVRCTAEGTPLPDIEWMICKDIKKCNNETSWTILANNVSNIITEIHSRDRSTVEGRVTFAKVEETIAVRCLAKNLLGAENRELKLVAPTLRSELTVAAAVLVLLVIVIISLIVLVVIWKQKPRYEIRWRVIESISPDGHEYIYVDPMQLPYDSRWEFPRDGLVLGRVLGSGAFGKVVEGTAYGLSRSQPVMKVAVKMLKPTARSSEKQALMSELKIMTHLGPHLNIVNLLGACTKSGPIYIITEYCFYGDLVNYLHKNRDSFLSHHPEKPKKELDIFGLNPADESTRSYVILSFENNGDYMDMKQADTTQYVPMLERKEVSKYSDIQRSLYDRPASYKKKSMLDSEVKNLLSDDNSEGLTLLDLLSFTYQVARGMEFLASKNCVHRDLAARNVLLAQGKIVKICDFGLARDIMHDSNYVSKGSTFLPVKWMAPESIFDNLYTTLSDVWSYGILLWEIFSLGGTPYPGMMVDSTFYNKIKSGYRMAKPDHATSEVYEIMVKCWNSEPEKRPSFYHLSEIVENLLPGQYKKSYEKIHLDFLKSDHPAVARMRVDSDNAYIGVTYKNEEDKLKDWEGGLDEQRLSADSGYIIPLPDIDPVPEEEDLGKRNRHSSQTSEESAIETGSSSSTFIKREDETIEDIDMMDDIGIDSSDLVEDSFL
# Description: as §1
# [1] = compound 7 vs compound 1, 10 µM
smiles,measurement,setting,value
"Oc1ccc(-n2nnc3ccc(NCc4ccc(F)cc4)nc32)cc1 [Compound 7, 4-[5-(4-Fluoro-benzylamino)-[1], [2], [3]triazolo[4,5-b]pyridin-3-yl]-phenol]",inhibition at 10 µM,AKT1,0%
same,RPS6KA1 improvement in percentage of inhibition,RPS6KA1; [1],c (This designation indicates that the improvement in percentage of inhibition was equal or greater than 50%)
same,inhibition at 10 µM,"RPS6KA1; inhibitor at 10 µM, average of two data points, read-out: RPS6KA1 percentage of inhibition",45%
same,inhibition at 10 µM,IGF1-R,9%
same,MST1 improvement in percentage of inhibition,MST1; [1],c (This designation indicates that the improvement in percentage of inhibition was equal or greater than 50%)
same,inhibition at 10 µM,"MST1; inhibitor at 10 µM, average of two data points, read-out: MST1 percentage of inhibition",29%
same,inhibition at 10 µM,JAK2,30%
same,inhibition at 10 µM,PAK1,5%
same,FGF-R1 improvement in percentage of inhibition,FGF-R1; [1],c (This designation indicates that the improvement in percentage of inhibition was equal or greater than 50%)
same,inhibition at 10 µM,"FGF-R1; inhibitor at 10 µM, average of two data points, read-out: FGF-R1 percentage of inhibition",19%
same,SGK1 improvement in percentage of inhibition,SGK1; [1],c (This designation indicates that the improvement in percentage of inhibition was equal or greater than 50%)
same,inhibition at 10 µM,"SGK1; inhibitor at 10 µM, average of two data points, read-out: SGK1 percentage of inhibition",12%
same,B-RAF-V600E improvement in percentage of inhibition,B-RAF-V600E; [1],b (This designation indicates that the improvement in percentage of inhibition was equal or greater than 25%)
same,inhibition at 10 µM,"B-RAF-V600E; inhibitor at 10 µM, average of two data points, read-out: B-RAF-V600E percentage of inhibition",8%
same,DYRK1A reduction of percentage of inhibition,"DYRK1A; compound 7 compared to compound 1, 10 µM",more than 25%
same,DYRK1A improvement in percentage of inhibition,DYRK1A; [1],b (This designation indicates that the improvement in percentage of inhibition was equal or greater than 25%)
same,inhibition at 10 µM,"DYRK1A; inhibitor at 10 µM, average of two data points, read-out: DYRK1A percentage of inhibition",> 70%
same,CK1-α1 improvement in percentage of inhibition,CK1-α1; [1],b (This designation indicates that the improvement in percentage of inhibition was equal or greater than 25%)
same,inhibition at 10 µM,"CK1-α1; inhibitor at 10 µM, average of two data points, read-out: CK1-α1 percentage of inhibition",8%
same,EGF-R improvement in percentage of inhibition,EGF-R; [1],b (This designation indicates that the improvement in percentage of inhibition was equal or greater than 25%)
same,inhibition at 10 µM,"EGF-R; inhibitor at 10 µM, average of two data points, read-out: EGF-R percentage of inhibition",8%
same,inhibition at 10 µM,MET,21%
same,ARK5 improvement in percentage of inhibition,ARK5; [1],c (This designation indicates that the improvement in percentage of inhibition was equal or greater than 50%)
same,inhibition at 10 µM,"ARK5; inhibitor at 10 µM, average of two data points, read-out: ARK5 percentage of inhibition",13%
same,PDGFR-α improvement in percentage of inhibition,PDGFR-α; [1],b (This designation indicates that the improvement in percentage of inhibition was equal or greater than 25%)
same,inhibition at 10 µM,"PDGFR-α; inhibitor at 10 µM, average of two data points, read-out: PDGFR-α percentage of inhibition",53%
